Laboratory results reported in PMC8619046, “ABCB1 and ABCG2 Control Brain Accumulation and Intestinal Disposition of the Novel ROS1/TRK/ALK Inhibitor Repotrectinib, While OATP1A/1B, ABCG2, and CYP3A Limit Its Oral Availability” (Pharmaceutics, 2021).
Where two headings read alike, the source gives them in different places.

Columns and labels:
[1] = Toxicity signs observed in mice after oral repotrectinib; assay type: in vivo; conditions: 10 mg/kg oral
Source text: (§1) Mice with similar average ages (and body weights) were randomly allocated in experimental groups as far as possible. Mice were maintained in a temperature-controlled and specific pathogen-free environment with a 12-h light and 12-h dark cycle and they received a standard diet (Transbreed, SDS Diets, Technilab-BMI, Someren, The Netherlands) and acidified water ad libitum. […] Given the objective main readout (repotrectinib plasma and tissue concentrations as measured by LC-MS/MS), no blinding method was applied.
To minimize variation in absorption upon oral administration, mice were fasted for 2–3 h before repotrectinib (10 mg/kg body weight) was administered by gavage into the stomach at 10 µL/g body weight, with a blunt-ended needle. Tail vein serial blood samples were collected at 0.125, 0.25, 0.5, 1, 2 and 4 h using heparinized capillary tubes (Sarstedt, Nümbrecht, Germany) for the 8-h experiments. For the 4- and 2-h experiments, blood samplings were performed from the tail vein with the same schedule, but terminated at 2 and 1 h, respectively. Eight, four, or two hours after oral administration, mice were deeply anesthetized with 2–3% isoflurane, followed by cardiac puncture to collect blood in Eppendorf tubes containing heparin as an anticoagulant. Brain, liver, spleen, kidney, lung, small intestine, and testis were rapidly collected after sacrificing the mice by cervical dislocation. The small intestinal contents (SIC) were separated from small intestinal tissue (SI), which was flushed and rinsed with cold saline to remove any residual feces. Brain, liver, spleen, kidney, lung, SI, SIC, and testis were homogenized with 1, 3, 1, 2, 1, 3, 2, and 1 mL of 2% BSA (w/v), respectively. Plasma fraction was isolated from blood by centrifugation at 9000× g for 6 min at 4 °C. All samples were stored at −30 °C until analysis.

[2] = system: T1, human ABCG2; experiment: Transepithelial transport, MDCK-II cells transduced with hABCG2; assay type: in vitro ADME; conditions: MDCK-II hABCG2, 5 µM, read-out: efflux transport ratio r
T1 construct: expressed in transfected cells; host or cells: MDCK-II cells stably transduced with hABCG2 cDNA (made in the authors' institute)
Source text: Polarized Madin-Darby Canine Kidney (MDCK-II) cells (ECACC 00062107) stably transduced with either human (h) ABCB1, hABCG2 or mouse (m) Abcg2 cDNA were generated in our institute between 1995–2005. The proper identity and functionality, such as highly characteristic growth and drug transporter properties, including inhibitor sensitivity, were regularly checked in these epithelial cells. Mycoplasma routinely tested negative in these cells. The passage number was 10–15 when used in the transport experiments.
Transepithelial transport experiments were performed as previously described with 12-well plates (Transwell 3414, Corning Inc., Kennebunk, ME, USA) containing microporous polycarbonate membrane filters (3.0 µm pore size, 12 mm diameter). […]
After pre-incubation with 5 µM zosuquidar (ABCB1 inhibitor) and/or 5 µM Ko143 (ABCG2/Abcg2 inhibitor) in both compartments (when appropriate) for 1 h, the transport phase was initiated (t = 0) by replacing the medium in apical and basolateral compartments with fresh DMEM with 10% FBS and the appropriate inhibitor(s), and repotrectinib at 5 µM in the donor compartment. […] The active transport ratio r, calculated by dividing the amount of apically directed drug transport by basolaterally directed drug translocation after 8 h, was used to assess active transport of repotrectinib.

[3] = Oral plasma pharmacokinetics compared across experiments and mouse strains; assay type: in vivo, mice
Source text: as §1
Repotrectinib was dissolved in dimethyl sulfoxide (DMSO) at a concentration of 50 mg/mL. […]
A sensitive and specific liquid chromatography-tandem mass spectrometry method using protein precipitation pre-treatment was adopted to quantify the concentration of repotrectinib in DMEM medium, plasma samples and tissue homogenates.
A non-compartmental model using the PKSolver add-in program for Microsoft Excel was adopted to calculate the pharmacokinetic parameters of repotrectinib. Oral availability was assessed by the plasma area under the curve (AUC), calculated using repotrectinib plasma concentration-time curves with the linear trapezoidal rule without extrapolating the infinity. […]

C[C@H]1CNC(=O)c2cnn3ccc(nc23)N[C@H](C)c2cc(F)ccc2O1 [repotrectinib]
toxicity signs ([1]; Cyp3a−/− and Oatp1a/1b−/− mice): no noticeable signs of toxicity | time at which signs of toxicity disappeared ([1]; female Abcb1a/1b;Abcg2−/− mice): around 4 h | time of toxicity signs after oral administration ([1]; female Abcb1a/1b;Abcg2−/− mice): 1 to 2 h | toxicity signs ([1]; female Abcb1a/1b;Abcg2−/− mice, hypoactivity and continuously closed eyes): mild toxicity signs | toxicity signs ([1]; female wild-type mice): no noticeable toxicity symptoms | efflux ratio at 8 h, 5 µM ([2]; pH 7.4, with zosuquidar 5 µM + Ko143 5 µM, + zosuquidar 5 µM + Ko143 5 µM): 0.95 | efflux ratio at 8 h, 5 µM ([2]; pH 7.4, with zosuquidar 5 µM, + zosuquidar 5 µM): 5.6 | Tmax ([3]; plasma, 10 mg/kg, all tested mouse strains, oral administration): ~30 min | plasma levels, female relative to male mice ([3]; same oral dose 10 mg/kg, Figure 3 vs Figure S1): about 1.6 fold
